Assay results: patent US20060147924A1, “Population of nucleic acids including a subpopulation of lna oligomers” (priority 2002, published 2006)

How the values were obtained:
3′-TGTATC = test: Tm of duplexes of 6-mers with LNA 3′-TGTATC; type: binding; conditions: Table 8; duplexes 2.5 μM; 0.1 M NaCl, 10 mM Na-phosphate pH 7.0, 10 mM EDTA
Experimental: (§1) (entry 1) to 53.5° C. (entry 2) thus verifying the reduced strength of the intramolecular hydrogen bonds of the self complementary oligonucleotide. At the same time the oligonucleotides containing the SBC LNA monomers are able to hybridize to complementary DNA due to the increased binding efficiency of LNA-D and LNA-^2SU. Similarly as exemplified in Table 8 (see below) the Tm of a duplex between 2 complementary oligonucleotides containing e.g. 3 SBC LNA pairs (entry 3) is reduced to 59° C. from the corresponding non-SBC LNA duplex (82° C.-entry 1) while the single-stranded SBC LNA oligonucleotides still are capable to hybridize to complementary non-modified LNA oligonucleotides as well as DNA oligonucleotides with increased Tm.

3′-ctgtatcc = test: Thermal denaturation (Tm) of duplexes with complementary DNA 3′-ctgtatcc; type: binding; conditions: Table 8; duplexes 2.5 μM; 0.1 M NaCl, 10 mM Na-phosphate pH 7.0, 10 mM EDTA
Experimental: The complexing properties of oligonucleotides containing new LNA monomers 1-3 were assessed. Comparative binding data from an 8-mer LNA sequence is shown in Table 4 as the melting temperatures against complementary single-stranded DNA. An exemplary sequence for this comparison is GACATAGG, which is the central part of a capture probe used for SNP detection in GluclVS7-7asA (A:a mismatch position). The thermal stabilities of reference DNA duplexes (entries 1-7, Table 4) can be directly compared with their LNA counterparts (entries 8-14). […] The average melting temperatures of DNA and LNA 8-mers against complementary DNAs typically differ by about 40° C. […] (i.e., entries 1 and 4). D-nucleosides may facilitate a B to A helix transition, because the A-type structure of an LNA:DNA duplex is more suitable for effective D:t pairing. This stabilizing effect is expected to be even more pronounced for LNA:RNA duplexes, which can be very useful for construction of antisense or other gene-silencing reagents. The mismatch discrimination ability of the D-nucleoside was also studied (entry 11).
The absorbance was monitored at 260 nm while raising the temperature at a rate of 1° C. per min. The melting temperatures (Tm values) of the duplexes were determined as the maximum of the first derivatives of the melting curves obtained.

3′-^2SUG^2SUA^2SUC = test: Tm of duplexes of 6-mers with SBC-LNA 3′-^2SUG^2SUA^2SUC; type: binding; conditions: Table 8; duplexes 2.5 μM; 0.1 M NaCl, 10 mM Na-phosphate pH 7.0, 10 mM EDTA
Experimental: as §1

3′-TG^2SUATC = test: Tm of duplexes of 6-mers with SBC-LNA 3′-TG^2SUATC; type: binding; conditions: Table 8; duplexes 2.5 μM; 0.1 M NaCl, 10 mM Na-phosphate pH 7.0, 10 mM EDTA
Experimental: as §1

[1] = system: self complementary duplex; test: Tm of self complementary duplexes of dual labeled SBC-LNA probes; type: binding; conditions: Table 7, duplexes 2 μM, 0.1 M NaCl, 10 mM Na-phosphate pH 7.0, 1 mM EDTA
Experimental: as §1

3′-ACGACCAC-5′ = test: Tm of LNA:DNA and DNA:DNA 8-mer duplexes, perfect match (Table 2); type: binding
Description: (§2) It is often difficult to design probes and primers with the same range of melting temperature due to the variance in A/T and G/C content of the probing sites. Highly A/T rich regions typically give lower Tm values. Furthermore, if single mismatches are to be resolved, G/T mismatches are known to contribute little to ΔTm. As discussed above, the use of LNA is a desirable way to solve problems related to multiplex use of primers and probes. LNA offers the possibility to adjust Tm and increase the ΔTm at the same time. LNA increases Tm with 4-8° C./substitution and Increases ΔTm in many cases with several 100% (Table 2 and FIG. 22).

3′-ACGGCCAC-5′ = test: Tm of LNA:DNA and DNA:DNA 8-mer duplexes, single mismatch (Table 2); type: binding; conditions: for ΔTm: perfect match vs single mismatch
Description: as §2

aagaggccagtg = test: Tm of chimeric LNA-DNA 12-mers, Gluc53as-A, singly mismatched duplex; type: binding; conditions: for Tm (± 0.5° C.) of the duplexes with DNA oligonucleotide aagaggccagtg: Table 5, Gluc53as-A, singly mismatched, duplexes 2 μM, buffer as Table 4; for ΔTm between singly mismatched and perfect duplexes (Gluc53as-A): Table 5, value in brackets
Experimental: (§3) The thermal denaturation experiments were performed on a Perkin-Elmer UV/VIS spectrometer fitted with a PTP-6 Peltier temperature-programming element using a medium salt buffer solution (10 mM sodium phosphate, 100 mM sodium chloride, 0.1 mM EDTA, pH 7.0). […] The absorbance was monitored at 260 nm while raising the temperature at a rate of 1° C. per min. The melting temperatures (Tm values) of the duplexes were determined as the maximum of the first derivatives of the melting curves obtained.

aagagtccagtg = test: Tm of chimeric LNA-DNA 12-mers, Gluc53as-A, perfect duplex; type: binding; conditions: Table 5, Gluc53as-A, duplexes 2 μM, buffer as Table 4
Experimental: as §3

caacaacccaca = test: Tm of chimeric LNA-DNA 12-mers, HNFas128A-2, singly mismatched duplex; type: binding; conditions: for Tm (± 0.5° C.) of the duplexes with DNA oligonucleotide caacaacccaca: Table 5, HNFas128A-2, singly mismatched, duplexes 2 μM, buffer as Table 4; for ΔTm between singly mismatched and perfect duplexes (HNFas128A-2): Table 5, value in brackets
Experimental: as §3

caacatcccaca = test: Tm of chimeric LNA-DNA 12-mers, HNFas128A-2, perfect duplex; type: binding; conditions: Table 5, HNFas128A-2, perfect duplex; duplexes 2 μM; buffer as Table 4
Experimental: as §3

5′-ACATAG
Tm of the duplexes with 3′-TGTATC (3′-TGTATC): 82 °C
Tm of the duplexes with 3′-ctgtatcc (3′-ctgtatcc): 27 °C
Tm of the duplexes with 3′-^2SUG^2SUA^2SUC (3′-^2SUG^2SUA^2SUC): 83 °C
Tm of the duplexes with 3′-TG^2SUATC (3′-TG^2SUATC): 85 °C

5′-ACDTAG
Tm of the duplexes with 3′-TGTATC (3′-TGTATC): 93 °C
Tm of the duplexes with 3′-ctgtatcc (3′-ctgtatcc): 37 °C
Tm of the duplexes with 3′-^2SUG^2SUA^2SUC (3′-^2SUG^2SUA^2SUC): 73 °C
Tm of the duplexes with 3′-TG^2SUATC (3′-TG^2SUATC): 75 °C

5′-DCDTDG
Tm of the duplexes with 3′-TGTATC (3′-TGTATC): >97 °C
Tm of the duplexes with 3′-ctgtatcc (3′-ctgtatcc): 55 °C
Tm of the duplexes with 3′-^2SUG^2SUA^2SUC (3′-^2SUG^2SUA^2SUC): 59 °C
Tm of the duplexes with 3′-TG^2SUATC (3′-TG^2SUATC): 95 °C

5′-Fitc-tAAATTTTA-EQL
Tm ^a of self complementary duplexes [1]: >90 (94-96) ° C.
Tm ^a of self complementary duplexes ([1]; listed as Table 7 entry 1): 90 °C

5′-Fitc-tDDDt^2S U^2SU^2SUa-EQL
Tm ^a of self complementary duplexes [1]: 64.5 °C

5′-Fitc-taDDT^2SU^2SUta-EQL
Tm ^a of self complementary duplexes [1]: 53.5 °C

5′-TGCTGGTG-3′ [DNA 8-mer, reference compound]
Tm of LNA:DNA Duplexes, Perfect match 3′-ACGACCAC-5′ (3′-ACGACCAC-5′): 35 °C
Tm of LNA:DNA Duplexes, Single mismatch 3′-ACGGCCAC-5′ (3′-ACGGCCAC-5′): 25 °C
ΔTm (3′-ACGGCCAC-5′): 10 °C

5′-TGCTGGTG-3′ [LNA 8-mer]
Tm of LNA:DNA Duplexes, Perfect match 3′-ACGACCAC-5′ (3′-ACGACCAC-5′): 71 °C
Tm of LNA:DNA Duplexes, Single mismatch 3′-ACGGCCAC-5′ (3′-ACGGCCAC-5′): 45 °C
ΔTm (3′-ACGGCCAC-5′): 26 °C

Nc1ncc2ncn([C@@H]3O[C@@]4(CO)CO[C@@H]3[C@@H]4O)c2n1 [Compound 23, (1S,3R,4R,7S)-3-(2-aminopurin-9-yl)-7-hydroxy-1-hydroxymethyl-2,5-dioxabicyclo[2.2.1]heptane]
melting point: 227.5 to 229 °C (dec.)

cAmCtgGAmCtctt (CACTGGACTCTT; mixed-case modified oligonucleotide, notation key not given here) [chimeric LNA-DNA 12-mer, Gluc53as-A, with LNA-A]
Tm (± 0.5° C.) of the duplexes with DNA oligonucleotide aagaggccagtg (aagaggccagtg): 50.6 °C
ΔTm between singly mismatched and perfect duplexes (Gluc53as-A) (aagaggccagtg): −10.9 °C
Tm (± 0.5° C.) of the complementary duplexes with DNA oligonucleotide aagagtccagtg (aagagtccagtg): 61.5 °C

cAmCtgGDmCtctt
Tm (± 0.5° C.) of the duplexes with DNA oligonucleotide aagaggccagtg (aagaggccagtg): 45.4 °C
ΔTm between singly mismatched and perfect duplexes (Gluc53as-A) (aagaggccagtg): −19.9 °C
Tm (± 0.5° C.) of the complementary duplexes with DNA oligonucleotide aagagtccagtg (aagagtccagtg): 65.3 °C

tGtggGATGttg (TGTGGGATGTTG; chemistry not given here) [chimeric LNA-DNA 12-mer, HNFas128A-2, with LNA-A]
Tm (± 0.5° C.) of the duplexes with DNA oligonucleotide caacaacccaca (caacaacccaca): 45.9 °C
ΔTm between singly mismatched and perfect duplexes (HNFas128A-2) (caacaacccaca): −15.1 °C
Tm (± 0.5° C.) of the complementary duplexes with DNA oligonucleotide caacatcccaca (caacatcccaca): 61.0 °C

tGtggGDTGttg
Tm (± 0.5° C.) of the duplexes with DNA oligonucleotide caacaacccaca (caacaacccaca): 49.7 °C
ΔTm between singly mismatched and perfect duplexes (HNFas128A-2) (caacaacccaca): −15.8 °C
Tm (± 0.5° C.) of the complementary duplexes with DNA oligonucleotide caacatcccaca (caacatcccaca): 65.5 °C
